In patent publication US20240246964A1 (Arbutus Biopharma Corporation, priority 2021, published 2024):

Tests used:
[1] = target: PD-L1 His protein / PD-1 Fc protein (Homo sapiens (Human), UniProt Q9NZQ7); assay: HTRF Assay (PD-1/PD-L1 interaction); assay type: binding; settings: PD-L1 His 6 nM, PD-1 Fc 6 nM
human PD-L1 = human PD-L1 (Homo sapiens (Human), UniProt Q9NZQ7); assay: T cell activation luciferase reporter cell culture system (T Cell Activation Assay); assay type: cell-based; settings: luciferase reporter assay; PD-L1 aAPC/CHO-K1 cells with PD-1 effector Jurkat T cells
human PD-L1, sequence (Q9NZQ7 19-290): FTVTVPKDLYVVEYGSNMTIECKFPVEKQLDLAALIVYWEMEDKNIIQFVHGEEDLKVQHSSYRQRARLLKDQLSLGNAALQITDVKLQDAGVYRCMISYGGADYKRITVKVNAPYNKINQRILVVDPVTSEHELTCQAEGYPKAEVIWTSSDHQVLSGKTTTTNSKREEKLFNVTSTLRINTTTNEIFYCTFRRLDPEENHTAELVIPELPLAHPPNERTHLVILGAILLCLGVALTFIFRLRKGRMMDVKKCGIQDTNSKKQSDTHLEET

PD-L1 His protein / PD-1 Fc protein, sequence (Q9NZQ7 19-238): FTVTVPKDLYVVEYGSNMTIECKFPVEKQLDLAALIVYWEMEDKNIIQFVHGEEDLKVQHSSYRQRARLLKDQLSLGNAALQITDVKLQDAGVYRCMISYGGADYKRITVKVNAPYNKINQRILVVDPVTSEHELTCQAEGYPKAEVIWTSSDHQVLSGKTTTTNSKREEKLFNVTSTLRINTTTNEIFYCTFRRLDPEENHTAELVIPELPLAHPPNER

Row | SMILES | IC50 [1] | EC50 (human PD-L1)
1 | COc1cc(-c2nccc(-c3cccc(-c4ccc(CNC5CCN(C(C)=O)CC5)c(OC)n4)c3Cl)c2Cl)ccc1CN[C@@H]1COC(=O)C1 [Example 338, (S)-4-((4-(4-(3-(5-(((1-Acetylpiperidin-4-yl)amino)methyl)-6-methoxypyridin-2-yl)-2-chlorophenyl)-3-chloropyridin-2-yl)-2-methoxybenzyl)amino)dihydrofuran-2(3H)-one] | 0.17 nM | 96.3 nM
2 | COc1cc(-c2nccc(-c3cccc(-c4ccc(C5=NCCN5)c(OC)n4)c3Cl)c2Cl)ccc1CNC[C@@H](O)CC(=O)OC(C)C [Compound 209, isopropyl (S)-4-((4-(3-chloro-4-(2-chloro-3-(5-(4,5-dihydro-1H-imidazol-2-yl)-6-methoxypyridin-2-yl)phenyl)pyridin-2-yl)-2-methoxybenzyl)amino)-3-hydroxybutanoate] | 22.8 nM | ≥ 10000 nM
3 | COc1nc(-c2cccc(-c3ccnc(-c4ccc(CN5CC6(CNC(=O)C6)C5)c(OC(F)F)c4)c3Cl)c2Cl)ccc1CNC1CCOCC1 [Example 683, 2-(4-(3-Chloro-4-(2-chloro-3-(6-methoxy-5-(((tetrahydro-2H-pyran-4-yl)amino)methyl)pyridin-2-yl)phenyl)pyridin-2-yl)-2-(difluoromethoxy)benzyl)-2,6-diazaspiro[3.4]octan-7-one] | 0.29 nM | 25.9 nM
4 | COc1cc(-c2nccc(-c3cccc(-c4ccc(CN5CC6(CNC(=O)C6)C5)c(OC)n4)c3Cl)c2Cl)cnc1CN1CC2(CNC(=O)C2)C1 [Compound 376, 2-((3-Chloro-4-(2-chloro-3-(6-methoxy-5-((7-oxo-2,6-diazaspiro[3.4]octan-2-yl)methyl)pyridin-2-yl)phenyl)-5′-methoxy-[2,3′-bipyridin]-6′-yl)methyl)-2,6-diazaspiro[3.4]octan-7-one] | 0.458 nM | 38.4 nM
5 | COc1nc(-c2cccc(-c3ccnc(-c4ccc(CNC5CCOCC5)c(OC)n4)c3Cl)c2Cl)ccc1CNC1CCOCC1 [Compound 629, N-((6-(2-Chloro-3-(3-chloro-6′-methoxy-5′-(((tetrahydro-2H-pyran-4-yl)amino)methyl)-[2,2′-bipyridin]-4-yl)phenyl)-2-methoxypyridin-3-yl)methyl)tetrahydro-2H-pyran-4-amine] | 0.66 nM | 114 nM
6 | COc1cc(-c2ncnc(-c3cccc(-c4ccc(CNC[C@@H]5CCC(=O)N5)c(OC)n4)c3Cl)c2Cl)ccc1CNC[C@@H]1CCC(=O)N1 [Example 543, (S)-5-((((6-(2-chloro-3-(5-chloro-6-(3-methoxy-4-(((((S)-5-oxopyrrolidin-2-yl)methyl)amino)methyl)phenyl)pyrimidin-4-yl)phenyl)-2-methoxypyridin-3-yl)methyl)amino)methyl)pyrrolidin-2-one] | 0.29 nM | 17.5 nM
7 | COc1cc(-c2nccc(-c3cccc(-c4ccc(CN5CC(C)(O)C5)c(OC)n4)c3Cl)c2Cl)cc2c1CN(C[C@H](C)O)CC2 [Compound 217, (S)-1-((6-(2-chloro-3-(3-chloro-2-(2-(2-hydroxypropyl)-8-methoxy-1,2,3,4-tetrahydroisoquinolin-6-yl)pyridin-4-yl)phenyl)-2-methoxypyridin-3-yl)methyl)-3-methylazetidin-3-ol] | 2.01 nM | 38.2 nM
8 | COc1nc(-c2cccc(-c3ccnc(-c4ccc5c(CN(C)C)cn(C)c5c4)c3Cl)c2Cl)ccc1CNC[C@@H]1CCC(=O)N1 [Compound 33, (S)-5-((((6-(2-chloro-3-(3-chloro-2-(3-((dimethylamino)methyl)-1-methyl-1H-indol-6-yl)pyridin-4-yl)phenyl)-2-methoxypyridin-3-yl)methyl)amino)methyl)pyrrolidin-2-one] | 0.4 nM | 224 nM
9 | COc1nc(-c2cccc(-c3ccnc(-c4cc(OC)c5nc(CN6CC7(CCC(=O)N7)C6)cn5c4)c3Cl)c2Cl)ccc1CNC[C@@H]1CCC(=O)N1 [Example 320, (S)-2-((6-(3-Chloro-4-(2-chloro-3-(6-methoxy-5-((((5-oxopyrrolidin-2-yl)methyl)amino)methyl)pyridin-2-yl)phenyl)pyridin-2-yl)-8-methoxyimidazo[1,2-a]pyridin-2-yl)methyl)-2,5-diazaspiro[3.4]octan-6-one] | 0.231 nM | 51.2 nM
10 | COc1cc(-c2nccc(-c3cccc(-c4ccc(CN[C@H]5CC[C@H](OC)CC5)c(OC)n4)c3Cl)c2Cl)ccc1CN[C@H]1CC[C@H](OC)CC1 [Example 450, (1r,4r)-N-((6-(2-Chloro-3-(3-chloro-2-(3-methoxy-4-((((1r,4r)-4-methoxycyclohexyl)amino)methyl)phenyl)pyridin-4-yl)phenyl)-2-methoxypyridin-3-yl)methyl)-4-methoxycyclohexan-1-amine] | 2.36 nM | 54.7 nM
11 | COc1cc(-c2nccc(-c3cccc(NC(=O)c4ccc(CNC5CCOCC5)cn4)c3C)c2Cl)ccc1CNC1CCOCC1 [Example 646, N-(3-(3-Chloro-2-(3-methoxy-4-(((tetrahydro-2H-pyran-4-yl)amino)methyl)phenyl)pyridin-4-yl)-2-methylphenyl)-5-(((tetrahydro-2H-pyran-4-yl)amino)methyl)picolinamide] | 0.48 nM | 2710 nM
12 | COc1cc(-c2nccc(-c3cccc(-c4ccc(CNC5CCN(C(=O)c6ccccc6)CC5)c(OC)n4)c3Cl)c2Cl)ccc1CNC1CCN(C(=O)c2ccccc2)CC1 [Example 422, (4-(((6-(3-(2-(4-(((1-Benzoylpiperidin-4-yl)amino)methyl)-3-methoxyphenyl)-3-chloropyridin-4-yl)-2-chlorophenyl)-2-methoxypyridin-3-yl)methyl)amino)piperidin-1-yl)(phenyl)methanone] | 0.9 nM | 75.5 nM
13 | COc1cc(-c2nccc(-c3cccc(-c4ccc5c(CNC6CCN(C(C)=O)CC6)cn(C)c5n4)c3Cl)c2Cl)ccc1CNCCO [Compound 560, 1-(4-(((6-(2-Chloro-3-(3-chloro-2-(4-(((2-hydroxyethyl)amino)methyl)-3-methoxyphenyl)pyridin-4-yl)phenyl)-1-methyl-1H-pyrrolo[2,3-b]pyridin-3-yl)methyl)amino)piperidin-1-yl)ethan-1-one] | 1.66 nM | 57.3 nM
14 | COc1cc(-c2nccc(-c3ccnc(-c4cc5c(c(OC)c4)CN(C[C@@H]4CCC(=O)N4)CC5)c3Cl)c2Cl)cc2c1CN(C[C@@H]1CCC(=O)N1)CC2 [Compound 266, (5S,5'S)-5,5′-(((3,3′-Dichloro-[4,4′-bipyridine]-2,2′-diyl)bis(8-methoxy-3,4-dihydroisoquinoline-6,2(1H)-diyl))bis(methylene))bis(pyrrolidin-2-one)] | 18.4 nM | 439 nM
15 | COc1cc(-c2nccc(-c3cccc(-c4ccc(C5=NCCN5)c(OC)n4)c3Cl)c2Cl)ccc1C1=NCCN1 [Compound 106, 3-chloro-4-(2-chloro-3-(5-(4,5-dihydro-1H-imidazol-2-yl)-6-methoxypyridin-2-yl)phenyl)-2-(4-(4,5-dihydro-1H-imidazol-2-yl)-3-methoxyphenyl)pyridine] | 1.4 nM | 123 nM
16 | CCNCc1cn(C)c2cc(-c3nccc(-c4cccc(-c5ccc(CNC[C@@H]6CCC(=O)N6)c(OC)n5)c4Cl)c3Cl)ccc12 [Compound 32, (S)-5-((((6-(2-chloro-3-(3-chloro-2-(3-((ethylamino)methyl)-1-methyl-1H-indol-6-yl)pyridin-4-yl)phenyl)-2-methoxypyridin-3-yl)methyl)amino)methyl)pyrrolidin-2-one] | 0.7 nM | 261 nM
17 | COc1cc(-c2nccc(-c3cccc(-c4ccc(CNC5CCN(CCO)CC5)c(OC)n4)c3Cl)c2Cl)ccc1CNC1CCN(CCO)CC1 [Example 328, 2-(4-(((6-(2-Chloro-3-(3-chloro-2-(4-(((1-(2-hydroxyethyl)piperidin-4-yl)amino)methyl)-3-methoxyphenyl)pyridin-4-yl)phenyl)-2-methoxypyridin-3-yl)methyl)amino)piperidin-1-yl)ethan-1-ol] | 1.52 nM | 28.1 nM
18 | COc1cc(-c2nccc(-c3cccc(NC(=O)c4ccc(CNCCO)cn4)c3Cl)c2Cl)ccc1CNC[C@@H]1CCC(=O)N1 [Example 755, (S)—N-(2-Chloro-3-(3-chloro-2-(3-methoxy-4-((((5-oxopyrrolidin-2-yl)methyl)amino)methyl)phenyl)pyridin-4-yl)phenyl)-5-(((2-hydroxyethyl)amino)methyl)picolinamide] | 0.12 nM | 4.48 nM
19 | COc1cc(-c2nccc(-c3cccc(-c4ccc(CNC[C@@H]5CCC(=O)N5)c(OC)n4)c3Cl)c2Cl)cc(C)c1CNC[C@@H]1CCC(=O)N1 [Compound 115, (S)-5-((((6-(2-chloro-3-(3-chloro-2-(3-methoxy-5-methyl-4-(((((S)-5-oxopyrrolidin-2-yl)methyl)amino)methyl)phenyl)pyridin-4-yl)phenyl)-2-methoxypyridin-3-yl)methyl)amino)methyl)pyrrolidin-2-one] | 1.1 nM | 36.3 nM
20 | COc1cc(-c2nccc(-c3ccnc(-c4cnc5c(CNC[C@@H]6CCC(=O)N6)cn(C)c5c4)c3Cl)c2Cl)ccc1CNC[C@@H]1CCC(=O)N1 [Compound 16, (S)-5-(((4-(3,3′-dichloro-2′-(1-methyl-3-(((((S)-5-oxopyrrolidin-2-yl)methyl)amino)methyl)-1H-pyrrolo[3,2-b]pyridin-6-yl)-[4,4′-bipyridin]-2-yl)-2-methoxybenzyl)amino)methyl)pyrrolidin-2-one] | 1 nM | 355 nM
21 | COc1nc(-c2cccc(-c3nccc(-c4ccc(CN5CC6(CCN(C(C)=O)C6)C5)c(OC)n4)c3Cl)c2Cl)ccc1CN1CC2(CCN(C(C)=O)C2)C1 [Example 760, 1-(2-((6-(3-(5-((6-Acetyl-2,6-diazaspiro[3.4]octan-2-yl)methyl)-3′-chloro-6-methoxy-[2,4′-bipyridin]-2′-yl)-2-chlorophenyl)-2-methoxypyridin-3-yl)methyl)-2,6-diazaspiro[3.4]octan-6-yl)ethan-1-one] | 0.32 nM | 19.2 nM
